We go through 21 compounds from US8383637B2, “2-amino-quinazoline derivatives useful as inhibitors of β-secretase (BACE)” (Jansssen Pharmaceutica N.V., priority 2004, dated 2013).

“And” between values parts separate entries of the source, which are not always exact repeats. Identical values can stand only once. Like-named read-outs stand apart in the source and are kept apart here.

The Ki is the dissociation constant of the complex between target and ligand, obtained from inhibition or displacement. As a reminder, the inhibition is the drop in the measured response relative to a control, in per cent.

The target of experiment [1] is T1, β-secretase(BACE) (Homo sapiens, UniProt P56817).
T1 construct: purchased Panvera
T1 sequence (P56817 46-501): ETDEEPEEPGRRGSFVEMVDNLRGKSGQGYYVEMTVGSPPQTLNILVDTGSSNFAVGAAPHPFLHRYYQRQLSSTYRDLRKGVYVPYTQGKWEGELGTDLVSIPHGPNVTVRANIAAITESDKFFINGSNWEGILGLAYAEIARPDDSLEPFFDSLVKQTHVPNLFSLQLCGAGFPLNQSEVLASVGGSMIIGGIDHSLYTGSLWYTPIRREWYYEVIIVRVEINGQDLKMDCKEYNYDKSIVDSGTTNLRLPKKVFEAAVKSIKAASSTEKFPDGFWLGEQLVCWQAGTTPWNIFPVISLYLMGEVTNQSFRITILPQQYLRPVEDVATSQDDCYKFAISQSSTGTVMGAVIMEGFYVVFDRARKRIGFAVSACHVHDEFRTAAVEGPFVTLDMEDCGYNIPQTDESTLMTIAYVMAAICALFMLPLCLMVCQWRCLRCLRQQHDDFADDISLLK
Kind of experiment: BACE Assay-2 (FS1 substrate, IC50 and Ki). Type of experiment: biochemical. The following applies: procedure of Example 159, FS1 substrate; read-out: Ki μM (159).

In experiment [2] the target is T1, β-secretase(BACE). Briefly: BACE FS1% Inhibition Assay. It is filed as biochemical. Particulars: FS1 substrate. The gist of the method: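 Human BACE (4 μg/mL working solution) preincubated 20 min at room temperature with compound, then FS1 substrate (300 μg/mL working solution) added and incubated 1 h at room temperature. Percent inhibition calculated at each compound concentration against blank and vehicle controls.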

Setting [3] is: 0.3 μM test compound, read-out: % Inhibition (FS) 0.3 μM.
Where [4] appears, read: 1 μM test compound, read-out: % Inhibition (FS) 1 μM.
The mark [5] stands for this setting: 3 μM test compound, read-out: % Inhibition (FS) 3 μM.
[6] abbreviates: 0.3 μM test compound, read-out: % Inhibition (FS).
Setting [7] is: 1 μM test compound, read-out: % Inhibition (FS).
[8] abbreviates: 3 μM test compound, read-out: % Inhibition (FS).

Consider `Cc1cccc(-c2ccc3c(c2)CN(CCNC(=O)C2CCCCC2)C(N)=N3)c1` [Compound 627], for which the Ki in experiment [1] was 0.16 µM. In experiment [2] (setting [3]), the inhibition at 0.3 µM worked out at 39%. Moreover, in experiment [2] (setting [4]), the inhibition at 1 µM stood at 75%. Further, the inhibition at 3 µM in experiment [2] (setting [5]) worked out at 105%.

On to `NC1=Nc2ccc(-c3c(F)cccc3F)cc2CN1CCNC(=O)C1CCCCC1` [Compound 629], for which the Ki in experiment [1] is 0.13 µM. The inhibition at 0.3 µM in experiment [2] (setting [3]) is under 30%. For the same compound, the inhibition at 1 µM in experiment [2] (setting [4]) was 72%. In experiment [2] (setting [5]), the inhibition at 3 µM was determined as 102%.

For `CN(C(=O)CCC(C1CCC(O)CC1)N1Cc2cc(Oc3ccccc3)ccc2N=C1N)C1CCCCC1` (stereo not drawn) [Compound 632, 4-(2-Amino-6-phenoxy-4H-quinazolin-3-yl)-N-cyclohexyl-4-(4-hydroxy-cyclohexyl)-N-methyl-butyramide], the Ki in experiment [1] was found to be 0.0084 µM. Moreover, in experiment [2] (setting [3]), the inhibition at 0.3 µM was 115%. Besides, the inhibition at 1 µM in experiment [2] (setting [4]) is 118%. The inhibition at 3 µM in experiment [2] (setting [5]) came to 117%.

As for `CN(C(=O)CC[C@@H](C(=O)N(C)C1CCCCC1)N1Cc2cc(Oc3ccccc3)ccc2N=C1N)C1CCCCC1` [Compound 634, (S)-enantiomer of 2-(2-Amino-6-phenoxy-4H-quinazolin-3-yl)-pentanedioic acid bis-(cyclohexyl-methyl-amide)], the Ki in experiment [1] is 0.054 µM. For the same compound, the inhibition at 0.3 µM in experiment [2] (setting [3]) was determined as 46%. Further, in experiment [2] (setting [4]), the inhibition at 1 µM came to 88%. For the same compound, the inhibition at 3 µM in experiment [2] (setting [5]) came out at 114%.

Take `NC1=Nc2ccc(-c3ccccc3F)cc2CN1CCC(=O)NC1C2CC3CC(C2)CC1C3` (stereo not drawn) [Compound 635]: the Ki in experiment [1] came to 0.014 µM. In addition, in experiment [2] (setting [3]), the inhibition at 0.3 µM is 104%. The inhibition at 1 µM in experiment [2] (setting [4]) is 115%. Further, the inhibition at 3 µM in experiment [2] (setting [5]) worked out at 119%.

Take `CN(C(=O)CC[C@@H](C1CCCCC1)N1Cc2cc(Oc3ccccc3)ccc2N=C1N)C1CCOCC1` [Compound 638]: the Ki in experiment [1] stood at 0.23 µM. Further, the inhibition at 0.3 µM in experiment [2] (setting [3]) was 74%. For the same compound, in experiment [2] (setting [4]), the inhibition at 1 µM came to 101%. Also, in experiment [2] (setting [5]), the inhibition at 3 µM stood at 116%.

For `CC(C)CCC(=O)NCCN1Cc2cc(-c3ccccc3F)ccc2N=C1N` [Compound 647], in experiment [1], the Ki is 0.033 µM. The inhibition at 0.3 µM in experiment [2] (setting [3]) was 79%. In addition, the inhibition at 1 µM in experiment [2] (setting [4]) is 100%. In addition, the inhibition at 3 µM in experiment [2] (setting [5]) worked out at 113%.

Regarding `CC(C)CCC(=O)NCCN1Cc2cc(-c3ccccc3Cl)ccc2N=C1N` [Compound 654], in experiment [1], the Ki is 0.046 µM. In experiment [2] (setting [3]), the inhibition at 0.3 µM turned out to be 83%. In addition, the inhibition at 1 µM in experiment [2] (setting [4]) worked out at 102%. Moreover, in experiment [2] (setting [5]), the inhibition at 3 µM is 111%.

Turning to `Cc1ccccc1-c1ccc2c(c1)CN(CCNC(=O)C1CCCC1)C(N)=N2` [Compound 657, Cyclopentanecarboxylic acid [2-(2-amino-6-o-tolyl-4H-quinazolin-3-yl)-ethyl]-amide], the Ki in experiment [1] came out at 0.032 µM. Besides, the inhibition at 0.3 µM in experiment [2] (setting [3]) came out at 88%. In addition, the inhibition at 1 µM in experiment [2] (setting [4]) was 103%. The inhibition at 3 µM in experiment [2] (setting [5]) was 111%.

As to `COC1CCCC(C(=O)NCCN2Cc3cc(-c4ccccc4Cl)ccc3N=C2N)C1` (stereo not drawn) [Compound 692], the Ki in experiment [1] is 0.13 µM. The inhibition at 0.3 µM in experiment [2] (setting [6]) is 46%. The inhibition at 1 µM in experiment [2] (setting [7]) was found to be 90%. For the same compound, in experiment [2] (setting [8]), the inhibition at 3 µM came out at 116%.

Take `Cc1ccccc1-c1ccc2c(c1)CN(CCNC(=O)C1CCOCC1)C(N)=N2` [Compound 693]: the Ki in experiment [1] turned out to be 0.17 µM. In addition, the inhibition at 0.3 µM in experiment [2] (setting [6]) was found to be 47%. Further, the inhibition at 1 µM in experiment [2] (setting [7]) came to 83%. In experiment [2] (setting [8]), the inhibition at 3 µM is 109%.

Turning to `CN(C(=O)CC[C@@H](C1CCOCC1)N1Cc2cc(Oc3ccccc3)ccc2N=C1N)C1CCCCC1` [Compound 709, (S)-enantiomer of 4-(2-Amino-6-phenoxy-4H-quinazolin-3-yl)-N-cyclohexyl-N-methyl-4-(tetrahydro-pyran-4-yl)-butyramide], the Ki in experiment [1] worked out at 0.0065 µM. In experiment [2] (setting [6]), the inhibition at 0.3 µM was determined as 141%. Also, in experiment [2] (setting [7]), the inhibition at 1 µM came out at 143%. Moreover, the inhibition at 3 µM in experiment [2] (setting [8]) turned out to be 139%.

In the case of `CN(C(=O)CCC(C1CCCCC1)N1Cc2cc(Oc3ccccc3)ccc2N=C1N)C1CCC(O)CC1` (stereo not drawn) [Compound 712], the Ki in experiment [1] came out at 0.1 µM. Moreover, in experiment [2] (setting [6]), the inhibition at 0.3 µM worked out at 39%. Further, the inhibition at 1 µM in experiment [2] (setting [7]) was determined as 104%. Besides, the inhibition at 3 µM in experiment [2] (setting [8]) came out at 134%.

`CN(C(=O)CC[C@@H](C1CCCCC1)N1Cc2cc(Oc3ccccc3)ccc2N=C1N)C1CCC(C(=O)O)CC1` (stereo partly drawn) [Compound 714, 4-{[4-(2-Amino-6-phenoxy-4H-quinazolin-3-yl)-4-(S)-cyclohexyl-butyryl]-methyl-amino}-cyclohexanecarboxylic acid]: the Ki in experiment [1] was 0.029 µM and 0.022 µM. The “% Inhibition (FS)” value turned out to be 98% in experiment [2] (0.3 μM test compound, 0.3 µM); 129% in experiment [2] (1 μM test compound, 1 µM); 138% in experiment [2] (3 μM test compound). The inhibition at 0.3 µM in experiment [2] (setting [6]) amounted to 100%. Moreover, the inhibition at 1 µM in experiment [2] (setting [7]) stood at 126%. In experiment [2] (setting [8]), the inhibition at 3 µM came to 138%.

For `COc1ccccc1-c1ccc2c(c1)CN([C@@H](CCC(=O)N(C)CCC#N)C1CCCCC1)C(N)=N2` [Compound 720], the Ki in experiment [1] came to 0.3 µM. Moreover, the inhibition at 0.3 µM in experiment [2] (setting [6]) was determined as 72%. Also, the inhibition at 1 µM in experiment [2] (setting [7]) came out at 93%. Besides, in experiment [2] (setting [8]), the inhibition at 3 µM is 138%.

Take `COc1ccccc1-c1ccc2c(c1)CN([C@@H](CCC(=O)N(C)CCc1ccccc1)C1CCCCC1)C(N)=N2` [Compound 721, 4-[2-Amino-6-(2-methoxy-phenyl)-4H-quinazolin-3-yl]-4-(S)-cyclohexyl-N-methyl-N-phenethyl-butyramide]: the Ki in experiment [1] is 0.22 µM. The inhibition at 0.3 µM in experiment [2] (setting [6]) is 60%. Moreover, the inhibition at 1 µM in experiment [2] (setting [7]) worked out at 66%. The inhibition at 3 µM in experiment [2] (setting [8]) worked out at 127%.

In the case of `Cc1cc(CN(C)C(=O)CC[C@@H](C2CCCCC2)N2Cc3cc(-c4ccccc4F)ccc3N=C2N)on1` [Compound 723], in experiment [1], the Ki turned out to be 0.23 µM. In addition, in experiment [2] (setting [6]), the inhibition at 0.3 µM was 47%. Besides, in experiment [2] (setting [7]), the inhibition at 1 µM worked out at 63%. Also, the inhibition at 3 µM in experiment [2] (setting [8]) amounted to 111%.

`CN(CCC#N)C(=O)CC[C@@H](C1CCCCC1)N1Cc2cc(-c3ccccc3F)ccc2N=C1N` [Compound 725]: the Ki in experiment [1] was 0.45 µM. For the same compound, in experiment [2] (setting [6]), the inhibition at 0.3 µM was 33%. In addition, in experiment [2] (setting [7]), the inhibition at 1 µM was determined as 74%. The inhibition at 3 µM in experiment [2] (setting [8]) worked out at 126%.

As to `CN(CCc1ccccc1)C(=O)CC[C@@H](C1CCCCC1)N1Cc2cc(-c3ccccc3F)ccc2N=C1N` [Compound 727], the Ki in experiment [1] amounted to 0.43 µM. Further, the “% Inhibition (FS)” value in experiment [2] (0.3 μM test compound) came out at 46%; in experiment [2] (1 μM test compound), 80%; in experiment [2] (3 μM test compound), 137%.

In the case of `CCCN1Cc2cc(Oc3cccc(NCc4ccc(C)cc4)c3)ccc2N=C1N` [Compound 729], the Ki in experiment [1] worked out at 0.33 µM. The inhibition at 0.3 µM in experiment [2] (setting [6]) was 33%. The inhibition at 1 µM in experiment [2] (setting [7]) turned out to be 61%. In experiment [2] (setting [8]), the inhibition at 3 µM is 100%.

On to `CN(C(=O)CC[C@@H](C1CCC2(CC1)OCCO2)N1Cc2cc(Oc3ccccc3)ccc2N=C1N)C1CCCCC1` [Compound 730, S-enantiomer of 4-(2-Amino-6-phenoxy-4H-quinazolin-3-yl)-N-cyclohexyl-4-(1,4-dioxa-spiro[4.5]dec-8-yl)-N-methyl-butyramide], for which the Ki in experiment [1] came out at 0.054 µM. The inhibition at 0.3 µM in experiment [2] (setting [6]) was determined as 93%. Also, in experiment [2] (setting [7]), the inhibition at 1 µM is 109%. The inhibition at 3 µM in experiment [2] (setting [8]) is 114%.
